Laboratory results published in patent US11028127B2, “Peptides capable of reactivating p53 mutants” (Yeda Research and Development Co. Ltd., priority 2013, dated 2021).

What was measured:
Mut-p53 (R175H p53) = biological target: T1, Mut-p53 (R175H p53) (Homo sapiens, UniProt P04637, R175H); assay: p53/DNA binding ELISA kit (R&D), binding to p53-RE DNA; format: biochemical; conditions: H1299-R175H p53 cell extracts, vs background (NT)
T1 construct: a hot spot full length mutant p53 Mut-p53 R175H (R175H p53); expressed in transfected cells; host or cells: H1299 (p53-null) cells stably overexpressing R175H p53; cell extract
Excerpt: A commercial p53/DNA binding kit (R&D) was used, according to manufacturer instructions. Briefly, 96 well plates were coated with anti-p53 antibody overnight. Cell extracts containing p53 were reacted with an oligonucleotide that contains a p53 consensus binding site, labeled with biotin, in the presence or absence (NT) of test peptides. WT p53 is expected to bind this DNA binding site as well as to the antibody coating the test wells of the plate. Excess p53 and oligos are washed away and streptavidin-HRP is used to quantify the amount of oligos in the well, which is proportional to the DNA bound by p53. TMB assay was performed to determine HRP levels (450 nm). The results are presented as relative absorbance (at 450 nm) (Y-Axis) of each tested sample. MCF7 and the H1299-Mut-p53 (ts) A135V cells serve as positive controls for WT p53.
For these experiments, a commercial p53/DNA binding kit of “R&D” (Cat-DYC1355-5 Lot-1273366FA) was used, in accordance with manufacturer guide lines. Briefly, 96 well plates are coated with anti-p53 antibody overnight. Cell extracts containing p53 are reacted with an oligonucleotide that contains a p53 consensus binding site (provided in the kit), labeled with biotin, in the presence or absenc.
e (NT) of test peptides. WT p53 is expected to bind this DNA binding site as well as to the antibody coating the test wells of the plate. Excess p53 and oligos were washed away and streptavidin-HRP was used to quantify the amount of oligos in the well, which is proportional to the DNA bound by p53. TMB assay was performed to determine HRP (ES001-1L-K) levels (450 nm).
To measure the effect of the tested peptides on DNA binding of Mut-p53, a commercial ELISA kit, (R&D Systems DYC1355-5, Lot-1273366FA), was used as a high-throughput assay to quantify p53 activation. This kit uses a 96-well plate format. The kit was used according to manufacturer's instructions. Wells were coated with anti-p53 antibody overnight. Cell extracts containing p53 were reacted with a biotin labeled oligonucleotide containing a p53 consensus binding site (included in the kit). WT p53 is expected to bind this oligo as well as the antibody coating the wells. Excess p53 and oligo were washed away in wash buffer (0.05% Tween 20 in PBS, pH 7.2-7.4; R&D Systems, Catalog #WA126). Then, streptavidin-HRP (R&D Systems, Part 890803, provided in the kit) was added for 15-45 min to quantify the amount of oligo in the well, which is proportional to the DNA bound by p53. If the addition of a peptide to Mut-p53 extracts increases ELISA reading compared to background, this peptide is considered as functionally effective and may be selected for further analysis. […] As with the conformational screening, MCF7 and the H1299-Mut-p53 (ts) A135V cells served as positive controls for WT p53. Extracts were added to the wells coated with αp53-Ab, and after several washing steps, streptavidin-HRP was added for 1 hour, and then plates were washed again and TMB (substrate to HRP) assay was performed.

R175H p53 = biological target: T2, R175H p53 (Homo sapiens, UniProt P04637, R175H); assay: TK-RGC-luc luciferase reporter assay in H1299 p53−/− cells; format: cell-based; conditions: peptides added 24 hours after transfection, read at 48 hours
T2 construct: a hot spot full length mutant p53 Mut-p53 R175H (R175H p53); expressed in transfected cells; host or cells: H1299 p53-/- cells, transient transfection
Description: FIG. 12 is a bar graph illustrating the relative luciferase activity (cLuc/gLuc) as measured in the various tested samples. Transient transfection of H1299 p53^−/− cells was performed with plasmids expressing WT p53, R175H p53, R249S p53 or empty vector as control, together with TK-RGC-luc, where luciferase expression is under control of a tandem array of multiple p53-responsive elements. 24 hours after transfection, cells were treated with the test peptides. 48 hours after transfection, a sample of the culture medium was taken for bioluminescence measurements.
The oligonucleotide (RGC-W) that has the sequence 5′-[…]-3′ (SEQ ID NO:362), and the oligonucleotide mutant RGC oligonucleotide (RGC-M) that has the sequence 5′-[…]-3′ (SEQ ID NO:363), are both derived from Kern et al. (Kern, S. E., et al., Identification of p53 as a sequence-specific DNA-binding protein. Science, 1991. 252(5013): p. 1708-11), and serve as a consensus binding sites for WT p53.
These motifs were cloned into the KPN and Eco53IK sites in pCLuc Mini-TK 2 Vector (NEB, Cat No. N0324S ). The Luciferase construct was used to assess transcriptional activation of p53 in test cells.
H1299 p53-null cells were cultured overnight and then transfected with the luciferase constructs using MaxFect Transfection Agent (Mediatech) according to the manufacturer's protocol. Prior to the transfection, cell medium was exchanged to OPTI-MEM.
The cells were treated with different peptides 24 hours after transfection. After additional 24 hours, growth medium was collected to 96 black plates: 40 μl for Cluc assay, and 20 μl for Gluc assay. Assay was performed using Turner BioSystems Modulus Microplate. Value was calculated by Cluc/gluc/NT (non-treated cells).
As additional screening strategy used to identify reactivating peptides was performed in vivo and is based on a reporter gene assay. It measures p53 transcriptional activity by quantifying the activity of a reporter gene, placed under the control of a promoter containing 17 repeats of a p53 consensus binding site (RGC). The luciferase assay is performed on living cells and therefore provides an indication on the effect of test peptides on Mut-p53 function in the context of intact cells.
For the in vivo luciferase based screening, H1299 cells were used. Transient transfection of these p53^−/− cells was performed with vectors expressing WT p53, R175H p53, R249S p53 or empty vector as control (Suad, O., et al., Structural basis of restoring sequence-specific DNA binding and transactivation to mutant p53 by suppressor mutations. J. Mol. Biol., 2009. 385(1): p. 249-65). Cells were also co-transfected with TK-RGC-luc (CAT. No. NEB, N0324S). 24 hours after transfection, cells were treated with the test peptides. […]

## YRRLLIGMMWRRRRRRRRRRR [pCAP-68]
Mut-p53 (R175H p53)
  binding of H1299-R175H p53 extracts to p53-RE DNA: elevate the binding of H1299-R175H p53 extracts to p53-RE DNA
R175H p53
  transcription from TK-RGC-luc in the presence of R175H p53: induce transcription from TK-RGC-luc
